Test results reported in patent US4110327A, “2,3 Diketo-piperazinocarbonylamino alkanoic acids and derivatives” (Toyama Chemical Co., Ltd., priority 1974, dated 1978).
≈ marks a conversion by molar mass, not a printed value.

Legend:
Format in all cases: cell-based
[1] = tested on: Proteus vulgaris 3027; experiment: MIC against standard strain, plate method; conditions: Proteus vulgaris 3027, standard strain; unit assumed
Description: (§1) The minimum inhibitory concentrations (MIC) was determined by the plate method disclosed in "Chemotherapy" (Japan), Vol. 16, (1968), pages 98 - 99. The culture medium used was a Heart infusion agar (pH 7.4). The number of the cells per plate used in the inoculum as 10^4 (10^6 cells/ml).

[2] = tested on: Escherichia coli NIHJ; experiment: MIC against standard strain, plate method; conditions: unit assumed
Description: as §1

[3] = tested on: Staphylococcus aureus 209p; experiment: MIC against standard strain, plate method; conditions: unit assumed
Description: as §1

[4] = tested on: Pseudomonas aeruginosa I.F.O.; experiment: MIC against standard strain, plate method; conditions: unit assumed
Description: as §1

[5] = tested on: Klebsiella pneumoniae; experiment: MIC against standard strain, plate method; conditions: unit assumed
Description: as §1

[6] = tested on: Pseudomonas aeruginosa; experiment: MIC against clinical isolates; conditions: unit assumed
[7] = tested on: Klebsiella pneumoniae; experiment: MIC against clinical isolates; conditions: unit assumed

| SMILES | MIC [1] [µg/mL] | MIC [2] [µg/mL] | MIC [3] [µg/mL] | MIC [4] [µg/mL] | MIC [5] [µg/mL] | further results |
| --- | --- | --- | --- | --- | --- | --- |
| CC1(C)S[C@@H]2[C@H](NC(=O)[C@H](NC(=O)N3CCN(C(=O)c4ccc(Cl)cc4Cl)CC3=O)c3ccccc3)C(=O)N2[C@H]1C(=O)O [compound 10] | 3.13 (≈ 4.83 µM) | < 1.57 | < 1.57 | 100 (≈ 154 µM) | 6.25 (≈ 9.64 µM) |  |
| CC(=O)NC(=O)N1CCN(C(=O)N[C@@H](C(=O)N[C@@H]2C(=O)N3[C@@H]2SC(C)(C)[C@@H]3C(=O)O)c2ccccc2)C(=O)C1 [compound 11] | 6.25 (≈ 11.1 µM) | < 1.57 | < 1.57 | 50 (≈ 89.2 µM) | 50 (≈ 89.2 µM) |  |
| CCOC(=O)N1CCN(C(=O)N[C@@H](C(=O)N[C@@H]2C(=O)N3[C@@H]2SC(C)(C)[C@@H]3C(=O)O)c2ccccc2)C(=O)C1 [compound 12] | 12.5 (≈ 22.8 µM) | 3.13 (≈ 5.72 µM) | < 1.57 | 50 (≈ 91.3 µM) | 6.25 (≈ 11.4 µM) |  |
| CCCCN1CC(=O)N(C(=O)N[C@@H](C(=O)N[C@@H]2C(=O)N3[C@@H]2SC(C)(C)[C@@H]3C(=O)O)c2ccccc2)C(C)C1 (stereo partly shown) [compound 15] | 6.25 (≈ 11.5 µM) | 3.13 (≈ 5.74 µM) | < 1.57 | 50 (≈ 91.6 µM) | 6.25 (≈ 11.5 µM) |  |
| CN1CCN(C(=O)N[C@@H](C(=O)N[C@@H]2C(=O)N3[C@@H]2SC(C)(C)[C@@H]3C(=O)O)c2ccccc2)CC1=O [compound 17] | 6.25 (≈ 12.8 µM) | < 1.57 | < 1.57 | 12.5 (≈ 25.5 µM) | 50 (≈ 102 µM) |  |
| CCCCN1CCN(C(=O)N[C@@H](C(=O)N[C@@H]2C(=O)N3[C@@H]2SC(C)(C)[C@@H]3C(=O)O)c2ccccc2)CC1=O [compound 18] | 3.13 (≈ 5.89 µM) | < 1.57 | < 1.57 | 12.5 (≈ 23.5 µM) | 25 (≈ 47 µM) |  |
| CCN1CCN(C(=O)N[C@@H](C(=O)N[C@@H]2C(=O)N3[C@@H]2SC(C)(C)[C@@H]3C(=O)O)c2ccccc2)CC1=O [compound 19] | 3.13 (≈ 6.22 µM) | < 1.57 | < 1.57 | 12.5 (≈ 24.8 µM) | 50 (≈ 99.3 µM) | MIC ([6]; clinical isolate GN 82): 12.5 µg/mL (≈ 24.8 µM); MIC ([6]; clinical isolate GN 163): 12.5 µg/mL (≈ 24.8 µM); MIC ([6]; clinical isolate GN 221): 12.5 µg/mL (≈ 24.8 µM); MIC ([6]; clinical isolate GN 376): 12.5 µg/mL (≈ 24.8 µM); MIC ([6]; clinical isolate GN 383): 12.5 µg/mL (≈ 24.8 µM); MIC ([6]; clinical isolate GN 1035): 100 µg/mL (≈ 199 µM); MIC ([6]; clinical isolate GN 1091): 12.5 µg/mL (≈ 24.8 µM); MIC ([6]; clinical isolate GN 2565): 50 µg/mL (≈ 99.3 µM); MIC ([6]; clinical isolate GN 2987): 12.5 µg/mL (≈ 24.8 µM); MIC ([6]; clinical isolate GN (number not given; Table 5-3)): 25 µg/mL (≈ 49.6 µM); MIC ([6]; clinical isolate S-1): 50 µg/mL (≈ 99.3 µM); MIC ([6]; clinical isolate S-2): 50 µg/mL (≈ 99.3 µM); MIC ([6]; clinical isolate S-3): 50 µg/mL (≈ 99.3 µM); MIC ([6]; clinical isolate S-4): 50 µg/mL (≈ 99.3 µM); MIC ([7]; clinical isolate GN 917): 50 µg/mL (≈ 99.3 µM); MIC ([7]; clinical isolate GN 3850): 100 µg/mL (≈ 199 µM); MIC ([7]; clinical isolate GN 4081): > 200 µg/mL; MIC ([7]; clinical isolate GN 4117): > 200 µg/mL |
| CC(C)N1CCN(C(=O)N[C@@H](C(=O)N[C@@H]2C(=O)N3[C@@H]2SC(C)(C)[C@@H]3C(=O)O)c2ccccc2)CC1=O [compound 20] | 3.13 (≈ 6.05 µM) | < 1.57 | 3.13 (≈ 6.05 µM) | 12.5 (≈ 24.1 µM) | 25 (≈ 48.3 µM) |  |
| CC(C)CCN1CCN(C(=O)N[C@@H](C(=O)N[C@@H]2C(=O)N3[C@@H]2SC(C)(C)[C@@H]3C(=O)O)c2ccccc2)CC1=O [compound 21] | 3.13 (≈ 5.74 µM) | 1.57 (≈ 2.88 µM) | < 0.79 | 25 (≈ 45.8 µM) | 25 (≈ 45.8 µM) |  |
| CCCCN1C(=O)CN(C(=O)N[C@@H](C(=O)N[C@@H]2C(=O)N3[C@@H]2SC(C)(C)[C@@H]3C(=O)O)c2ccccc2)CC1C (stereo partly shown) [compound 22] | 6.25 (≈ 11.5 µM) | < 1.57 | < 1.57 | 50 (≈ 91.6 µM) | 12.5 (≈ 22.9 µM) |  |
| CC1(C)S[C@@H]2[C@H](NC(=O)[C@H](NC(=O)N3CCN(Cc4ccccc4)C(=O)C3)c3ccccc3)C(=O)N2[C@H]1C(=O)O [compound 23] | 3.13 (≈ 5.53 µM) | < 1.57 | < 1.57 | 25 (≈ 44.2 µM) | 6.25 (≈ 11 µM) |  |
| CC1(C)S[C@@H]2[C@H](NC(=O)[C@H](NC(=O)N3CCN(CCO)C(=O)C3)c3ccccc3)C(=O)N2[C@H]1C(=O)O [compound 24] | 25 (≈ 48.1 µM) | < 1.57 | 3.13 (≈ 6.02 µM) | 50 (≈ 96.2 µM) | 50 (≈ 96.2 µM) |  |
| C=CCN1CCN(C(=O)N[C@@H](C(=O)N[C@@H]2C(=O)N3[C@@H]2SC(C)(C)[C@@H]3C(=O)O)c2ccccc2)CC1=O [compound 25] | 3.13 (≈ 6.07 µM) | < 1.57 | < 1.57 | 25 (≈ 48.5 µM) | 50 (≈ 97 µM) |  |
| C=C(C)CN1CCN(C(=O)N[C@@H](C(=O)N[C@@H]2C(=O)N3[C@@H]2SC(C)(C)[C@@H]3C(=O)O)c2ccccc2)CC1=O [compound 27] | 3.13 (≈ 5.91 µM) | < 1.57 | < 1.57 | 25 (≈ 47.2 µM) | 25 (≈ 47.2 µM) |  |
